Source: publication PMC9861162 (Pharmaceuticals, 2022)

Key:
CYP1A2 [1] = biological target: T1, CYP1A2 (Homo sapiens, UniProt P05177); conditions: microsomes
T1 sequence (P05177 1-516): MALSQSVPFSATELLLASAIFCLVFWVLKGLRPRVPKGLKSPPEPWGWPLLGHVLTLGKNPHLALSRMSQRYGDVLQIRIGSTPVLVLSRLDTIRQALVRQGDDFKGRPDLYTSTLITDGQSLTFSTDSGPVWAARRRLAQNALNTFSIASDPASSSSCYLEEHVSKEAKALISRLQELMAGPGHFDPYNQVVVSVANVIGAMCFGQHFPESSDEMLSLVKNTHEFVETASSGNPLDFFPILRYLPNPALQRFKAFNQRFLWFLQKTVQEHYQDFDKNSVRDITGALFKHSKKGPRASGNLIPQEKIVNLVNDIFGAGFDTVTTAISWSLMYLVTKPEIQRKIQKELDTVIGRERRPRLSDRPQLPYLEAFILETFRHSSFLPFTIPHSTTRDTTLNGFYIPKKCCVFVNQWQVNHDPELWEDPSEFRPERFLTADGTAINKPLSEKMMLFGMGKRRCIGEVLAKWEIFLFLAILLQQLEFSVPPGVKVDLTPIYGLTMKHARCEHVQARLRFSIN
Method: (§1) The incubation conditions employed for each CYP450 isoform were performed, as previously described.
(§2) Buffer solution (0.1 mol/L aqueous phosphate buffer, pH 7.4, 69 µL), NADPH-regenerating solutions (10 µL solution A: 26 mmol/L NADP+, 66 mmol/L glucose-6-phosphate, and 66 mmol/L MgCl2; 2 µL solution B: 40 U/mL glucose-6-phosphate dehydrogenase in 5 mmol/L sodium citrate), and deionized water (69 µL) were added, in a total volume of 150 μL. The tubes were vortex-mixed and preincubated with continuous gentle shaking for 5 min at 37 °C in a shaking water bath. Reactions were initiated by the addition of 50 µL of HLM solution in the tubes which were gently mixed by hand and incubated with continuous gentle shaking at 37 °C. Aliquots of 200 µL ice-cold solvent (Table 1) containing IS (1 µg/mL) were added. […] The supernatants were transferred to glass autosampler vials and submitted to LC-MS/MS analysis (5 µL injection volume) to monitor the substrate metabolite formation.

CYP2C19 = CYP2C19 (Homo sapiens, UniProt P33261); conditions: microsomes
Sequence of CYP2C19 (P33261 whole entry): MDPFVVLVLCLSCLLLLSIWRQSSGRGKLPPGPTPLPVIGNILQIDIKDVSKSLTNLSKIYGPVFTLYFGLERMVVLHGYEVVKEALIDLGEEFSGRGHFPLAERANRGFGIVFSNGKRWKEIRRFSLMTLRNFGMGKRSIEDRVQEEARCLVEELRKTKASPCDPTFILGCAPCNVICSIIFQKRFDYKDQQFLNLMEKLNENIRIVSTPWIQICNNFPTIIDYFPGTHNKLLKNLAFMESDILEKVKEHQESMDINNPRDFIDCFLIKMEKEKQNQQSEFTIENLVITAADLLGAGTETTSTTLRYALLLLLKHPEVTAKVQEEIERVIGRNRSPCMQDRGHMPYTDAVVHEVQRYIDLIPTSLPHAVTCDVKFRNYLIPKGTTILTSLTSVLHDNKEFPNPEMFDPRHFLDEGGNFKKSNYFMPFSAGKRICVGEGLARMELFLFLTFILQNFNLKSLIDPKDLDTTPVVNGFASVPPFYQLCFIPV
Method: as §1, §2

CYP2C8 = biological target: T2, CYP2C8 (Homo sapiens, UniProt P10632); conditions: microsomes
T2 sequence (P10632 1-490): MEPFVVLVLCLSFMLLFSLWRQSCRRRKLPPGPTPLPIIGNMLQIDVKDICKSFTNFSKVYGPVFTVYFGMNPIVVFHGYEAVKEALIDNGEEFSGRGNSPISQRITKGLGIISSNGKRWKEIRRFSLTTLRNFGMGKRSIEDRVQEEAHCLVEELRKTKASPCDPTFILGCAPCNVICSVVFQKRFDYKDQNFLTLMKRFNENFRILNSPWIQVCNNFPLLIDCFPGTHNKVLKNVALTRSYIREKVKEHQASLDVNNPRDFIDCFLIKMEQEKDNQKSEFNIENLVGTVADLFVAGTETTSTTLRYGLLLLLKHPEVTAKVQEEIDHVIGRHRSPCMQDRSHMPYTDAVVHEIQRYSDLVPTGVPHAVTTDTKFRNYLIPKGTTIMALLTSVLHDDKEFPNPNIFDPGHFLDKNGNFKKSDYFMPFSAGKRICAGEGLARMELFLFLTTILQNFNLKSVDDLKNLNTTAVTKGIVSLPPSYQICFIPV
Method: as §1, §2

CYP2C9 = CYP2C9 (Homo sapiens, UniProt P11712); conditions: microsomes
Sequence of CYP2C9 (P11712 whole entry): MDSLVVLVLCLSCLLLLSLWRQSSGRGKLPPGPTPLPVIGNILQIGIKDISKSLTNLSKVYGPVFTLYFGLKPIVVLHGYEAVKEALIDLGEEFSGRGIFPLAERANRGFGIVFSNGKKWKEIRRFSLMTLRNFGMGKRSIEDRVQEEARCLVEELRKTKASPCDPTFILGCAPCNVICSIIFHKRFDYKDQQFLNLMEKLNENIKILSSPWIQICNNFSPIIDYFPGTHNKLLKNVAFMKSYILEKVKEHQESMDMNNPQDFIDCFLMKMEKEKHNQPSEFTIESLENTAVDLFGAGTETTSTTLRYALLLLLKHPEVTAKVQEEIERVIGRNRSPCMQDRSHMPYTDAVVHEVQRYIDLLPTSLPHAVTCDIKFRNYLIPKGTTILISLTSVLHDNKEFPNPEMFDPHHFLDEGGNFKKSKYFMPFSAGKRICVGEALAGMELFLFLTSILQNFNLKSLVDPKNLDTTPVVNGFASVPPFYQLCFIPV
Method: as §1, §2

CYP2D6 = CYP2D6 (Homo sapiens, UniProt P10635); conditions: microsomes
Sequence of CYP2D6 (P10635 whole entry): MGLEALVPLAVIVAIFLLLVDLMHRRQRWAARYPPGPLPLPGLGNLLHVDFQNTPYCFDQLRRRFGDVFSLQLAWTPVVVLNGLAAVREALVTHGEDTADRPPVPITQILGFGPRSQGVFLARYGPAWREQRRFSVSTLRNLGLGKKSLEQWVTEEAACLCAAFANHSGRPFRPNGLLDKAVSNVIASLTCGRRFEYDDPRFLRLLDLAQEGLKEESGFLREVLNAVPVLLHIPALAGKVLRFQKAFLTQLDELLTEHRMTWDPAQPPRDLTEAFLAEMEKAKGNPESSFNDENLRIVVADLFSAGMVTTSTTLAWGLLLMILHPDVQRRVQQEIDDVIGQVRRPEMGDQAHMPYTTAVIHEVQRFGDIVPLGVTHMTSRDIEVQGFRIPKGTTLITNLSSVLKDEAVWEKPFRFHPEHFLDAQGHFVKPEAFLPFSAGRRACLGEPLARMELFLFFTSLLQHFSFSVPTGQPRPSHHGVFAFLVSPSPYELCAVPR
Method: as §1, §2

CYP3A4/5 = assay: in vitro CYP450 metabolism inhibition assay in human liver microsomes, CYP3A (midazolam or nifedipine)
Method: as §1, §2

CYP1A2 [2] = biological target: T1, CYP1A2; assay: clinical DDI prediction, static (IVIVE) and dynamic (PBPK) models, CYP1A2
Excerpt: The Ki input values were estimated from the ratio IC50/2. Since the IC50 experiments were designed considering the substrate concentration equal to Km, the simplification of Ki as IC50/2 was considered for a competitive inhibition reaction.
The following Equation (4) was considered for the potential DDI evaluation:(4) AUCR=AUCwith inhibitor/AUCwithout inhibitor where AUCR is the area under the curve ratio, AUCwith inhibitor is AUC in the presence of the inhibitor, and AUCwithout inhibitor is AUC in the absence of the inhibitor.

[3] = dapaconazole PBPK model in dogs (Simcyp); parameters: species or system dog
Method: A PBPK model was first developed in dogs using a hybrid PBPK approach employing the in vivo clearance reported in dogs. The input parameters are described in Table 4.
Then, the full PBPK model, which used the method 2 (Rodgers and Rowland [15]) to predict the volume of distribution at steady-state conditions (Vss) was evaluated.
All modeling was conducted using Simcyp modeling software (v. 20, Certara, Princeton, NJ, US). […] All of the input parameters are described in Table 4.
The Simcyp minimal PBPK, which considers all organs other than the intestine and liver as a single compartment, plus a SAC distribution model were selected. […] The Vss was predicted using Rodgers and Rowland’s equations (method 2). A Kp scalar was determined to best describe the observed dog data using a sensitivity analysis approach. The final values of Vsac, kin, and kout were determined from the parameter estimation approach selecting the best values to describe the shape of the observed PK profile. For the elimination model development, the in vivo systemic clearance values reported in dogs were employed in a middle-out approach. […] The PBPK model was evaluated through a visual comparison of observed in vivo plasma concentration–time profiles with the concentrations predicted in dogs, and the PK parameters within observed/predicted ratios between 0.5-fold to 2-fold were considered acceptable.

[4] = parameters: method as in Drugbank; conditions: PBPK input; ref Drugbank; cited from earlier work
[5] = parameters: method as in Antunes et al. [14]; conditions: ref Antunes et al. [14], cited from earlier work

## FC(F)(F)c1ccc(COC(Cn2ccnc2)c2ccc(Cl)cc2Cl)cc1 (stereo not shown) [dapaconazole, Dapaconazole]
CYP1A2 [1]
  IC50: 3680 nM
  Ki: 1840 nM
CYP2C19
  Ki: 30 nM
CYP2C8
  in vitro reversible inhibition class from IC50: slightly inhibits
CYP2C9
  Ki: 110 nM
CYP2D6
  Ki: 430 nM
CYP3A4/5; HLM, 3A4, range over midazolam and nifedipine substrates
  IC50: 8 to 30 nM
CYP3A4/5; HLM, midazolam as substrate, figure in parentheses not defined
  IC50: 7.69 nM
CYP3A4/5; Ki = IC50/2, substrate midazolam
  Ki: 4 nM
CYP3A4/5; microsomes
  IC50: 30.3 nM
CYP1A2 [2]; CYP1A2
  DDI potential from Ki and R1 values: moderate potential
CYP1A2 [2]; reversible inhibition, R1=1+(Imax,u/Ki,u), substrate phenacetin
  R1: 1.20
[3]; intravenous 1 mg/kg
  AUC0-t Observed/predicted ratio: 0.83
  CL Observed/predicted ratio: 1.29
  Cmax Observed/predicted ratio: 0.92
  t1/2 Terminal Observed/predicted ratio: 1.08
[3]; intravenous 2 mg/kg
  AUC0-t Observed/predicted ratio: 1.27
  CL Observed/predicted ratio: 1.09
  Cmax Observed/predicted ratio: 1.78
  t1/2 Terminal Observed/predicted ratio: 1.29
[3]; intravenous 20 mg/kg
  AUC0-t Observed/predicted ratio: 0.65
  CL Observed/predicted ratio: 1.54
  Cmax Observed/predicted ratio: 0.58
  t1/2 Terminal Observed/predicted ratio: 1.04
[4]
  log P: 5.63
  pKa (monoprotic base): 6.77
[5]; human liver microsome incubation
  fu,inc: 0.94
[5]; human liver microsomes
  CL int. mic.: 118.5 µL/min/mg
